This test addresses T1, human glycogen phosphorylase a (Homo sapiens, UniProt P06737).
T1 sequence (P06737 1-847): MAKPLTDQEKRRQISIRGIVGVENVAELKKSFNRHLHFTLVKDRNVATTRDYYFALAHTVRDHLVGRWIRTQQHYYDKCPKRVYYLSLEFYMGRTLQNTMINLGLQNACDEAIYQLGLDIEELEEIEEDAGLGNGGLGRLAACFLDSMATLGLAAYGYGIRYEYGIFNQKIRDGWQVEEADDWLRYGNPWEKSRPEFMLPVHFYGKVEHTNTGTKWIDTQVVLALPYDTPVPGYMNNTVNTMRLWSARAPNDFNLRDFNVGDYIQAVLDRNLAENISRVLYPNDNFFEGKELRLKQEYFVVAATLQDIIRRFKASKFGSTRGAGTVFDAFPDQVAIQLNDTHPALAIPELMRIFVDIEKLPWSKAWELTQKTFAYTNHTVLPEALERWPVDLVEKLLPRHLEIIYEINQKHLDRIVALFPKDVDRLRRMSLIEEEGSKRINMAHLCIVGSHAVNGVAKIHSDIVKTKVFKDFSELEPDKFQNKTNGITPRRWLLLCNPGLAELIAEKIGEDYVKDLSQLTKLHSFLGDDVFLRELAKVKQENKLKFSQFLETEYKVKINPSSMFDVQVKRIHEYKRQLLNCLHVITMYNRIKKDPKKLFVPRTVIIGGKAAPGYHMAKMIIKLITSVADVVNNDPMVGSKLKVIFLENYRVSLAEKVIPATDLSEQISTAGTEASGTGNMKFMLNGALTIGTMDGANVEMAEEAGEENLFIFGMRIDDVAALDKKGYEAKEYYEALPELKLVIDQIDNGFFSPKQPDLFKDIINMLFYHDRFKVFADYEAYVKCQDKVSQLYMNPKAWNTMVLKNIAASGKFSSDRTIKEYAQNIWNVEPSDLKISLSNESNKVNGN
As to the kind of experiment: Glycogen phosphorylase a activity assay. It is filed as biochemical. The following applies: 10 μM test substance; reverse direction (glycogen synthesis from glucose 1-phosphate, liberated inorganic phosphate). As for the experimental part:
Glycogen Phosphorylase a Activity Assay
The effect of compounds on the activity of the active form of glycogen phosphorylase (GPa) was measured in the reverse direction by following the synthesis of glycogen from glucose 1-phosphate by determining the liberation of inorganic phosphate. All the reactions were carried out as duplicate determinations in microtiter plates with 96 wells (Half Area Plates, Costar No 3696), measuring the change in absorption owing to the formation of the reaction product at the wavelength specified hereinafter in a Multiskan Ascent Elisa Reader (Lab Systems, Finland).
In order to measure the GPa enzymic activity in the reverse direction, the general method of Engers et al. (Engers H D, Shechosky S, Madsen N B, Can J Biochem 1970 July; 48(7):746-754) was used to measure the conversion of glucose 1-phosphate into glycogen and inorganic phosphate, with the following modifications: human glycogen phosphorylase a (for example with 0.76 mg of protein/ml (Aventis Pharma Deutschland GmbH), dissolved in buffer solution E (25 mM β-glycerophosphate, pH 7.0, 1 mM EDTA and 1 mM dithiothreitol) was diluted with buffer T (50 mM Hepes, pH 7.0, 100 mM KCl, 2.5 mM EDTA, 2.5 mM MgCl2.6H2O) and addition of 5 mg/ml glycogen to a concentration of 10 μg of protein/ml. […] After incubation at 45° C. for 60 minutes, the absorption at 820 nm was measured. […]

In general, % inhibition refers to the percentage by which the read-out fell short of the control. Turning to “1-Ethyl-6-(4-ethylphenylamino)-7-methyl-4-oxo-1,4-dihydro-[1,8]naphthyridine-3-carboxylate [Example 1]”, the “% inhibition at 10 μM” value was determined as 14%.

Values taken from patent US7402674B2, “7-Phenylamino-4-quinolone-3-carboxylic acid derivatives, process for their preparation and their use as medicaments” (Sanofi-Aventis Deutschland GmbH,, priority 2004, dated 2008).
